The record followed here is patent US12377100B2 (GILEAD SCIENCES, INC., priority 2015, dated 2025).

For one series, the system named is IFNα. The experiment in a line: PBMC cytokine profiling assay, IFNα induction. The format is cell-based. The following applies: human PBMCs, 24 hours incubation. Put shortly: (§1)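 Cryopreserved healthy-donor human PBMCs (100k cells/well) were exposed for 24 h at 37 °C to a 10-point half-log compound series in 0.5% final DMSO. Secreted cytokines in the conditioned medium were quantified by MSD electrochemiluminescence, with TNFα samples diluted 1:9. AC50 was fitted by non-linear regression on percent activation normalised to plate controls.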

In another series the test system is IL12p40. The experiment in a line: PBMC cytokine profiling assay, IL12-p40 induction. Type of series: cell-based. The following applies: human PBMCs, 24 hours incubation. Put shortly: as §1
Series [1] in a line: Cytotoxicity assay, Huh-7 cells, Cell Titer Glo, 5 days. Type of series: cell-based, human. The following applies: human, Huh-7 cells; Huh-7, five days incubation, intracellular ATP; read-out: CC50 HUH7 CTG 5D. An excerpt: (§2) To assess potential off-target toxicity of certain compounds disclosed herein, the in vitro cytotoxicity of those compounds was profiled using a panel of 5 cell lines with various tissue origins. Compound cytotoxicity was examined in hepatoma-derived Huh-7 and HepG2 cells, prostate carcinoma-derived PC-3 cells, lymphoma derived MT-4 cells and a normal diploid lung cell line MRC-5. HepG2 and PC-3 cells used were adapted to grow in glucose-free galactose-containing medium. These cells have a relatively higher sensitivity to inhibitors of mitochondrial oxidative phosphorylation compared to the same cells maintained in standard glucose-containing culture medium (Marroquin et al., Toxicol. Sci. 2007; 97 (2):539-47). Cell viability was determined by measuring intracellular ATP levels following five days of continuous incubation with test compounds.
(§3) The human hepatoma Huh-7 cell line was obtained from ReBLikon GmbH (Mainz, Germany) {20879}. The MT-4 cell line (HTLV-1 transformed, human T lymphoblastoid cells) was obtained from the NIH AIDS Reagent program (Bathesda, MD). The human hepatoblastoma cell line HepG2, human prostate carcinoma cell line PC-3, and normal fetal lung derived MRC-5 cells were obtained from the American Type Culture Collection (ATCC, Manassas, VA).
(§4) Huh-7 cells were maintained in Dulbecco's Modified Eagle Medium (DMEM) supplemented with 10% fetal bovine serum (FBS, Hyclone, Logan, UT), 1% non-essential amino acids (Gibco, Carlsbad, CA). PC-3 and HepG2 cells were adapted to grow in 0.2% galactose-containing, glucose-free Dulbecco's Modified Eagle Medium (DMEM) supplemented with 10% fetal bovine serum (FBS, Hyclone, Logan, UT), 1% non-essential amino acids (Gibco, Carlsbad, CA), 1% Pyruvate (Cellgro), 1% Glutamax (Invitrogen, Carlsbad, CA). Galactose-adapted cells were maintained in the same culture medium. MRC-5 cells were maintained in Eagle's Minimum Essential Medium (EMEM) supplemented with 10% fetal bovine serum (FBS, Hyclone, Logan, UT). MT-4 cells were maintained in RPMI-1640 supplemented with 10% fetal bovine serum (FBS, Hyclone, Logan, UT). All cell culture media were also supplemented with 100 Units/mL penicillin, 100 μg/mL streptomycin (Gibco).
(§5) Using a Biotek uFlow Workstation (Biotek, Winooski, VT), 1500 HepG2, 1500 PC-3, 500 Huh7 or 1500 MRC-5 cells in 90 μL of culture media were dispensed into each well of black polystyrene tissue culture-treated 384-well plates. Plated cells were incubated for 24 hours in an incubator at 37° C., 5% CO2 and 90% humidity. Compound serial dilutions were performed in 100% DMSO in 384-well polypropylene (high recovery) plates on a Biomek FX Workstation (Beckman Coulter, Fullerton, CA). After 3-fold serial dilutions, 0.4 μL of compounds were transferred into 384-well plates containing cells using a Velocity 11 system equipped with a Bravo 384-well pipettor. The DMSO concentration in the final assay plates was 0.44% (v/v). Cells were incubated with compound(s) for five days at 37° C. Puromycin (44 μM final concentration) and DMSO (0.44%, v/v) were used as a positive and negative controls, respectively
(§6) At the end of the incubation period the cytotoxicity assay was performed as follows: Media from 384-well cell culture plates were aspirated with a Biotek EL405 plate-washer (Biotek) and cells were washed with 100 μL PBS once. Twenty microliters of Cell Titer Glo (Promega, Madison, WI) was added to each well of the plates with a Biotek uFlow liquid dispenser. Plates were incubated for 15 minutes at room temperature before luminescence was measured with a Perkin Elmer Envision Plate Reader (Perkin Elmer, Waltham, MA).
(§7) CC50 values were defined as the compound concentration that caused a 50% decrease in luminescence signal, and were calculated by non-linear regression using Pipeline Pilot software by applying a four parameter fit equation (Accelrys, San Diego, CA). Individual CC50 values are listed as μM concentrations.
In general terms: ATP-based viability assays read luminescence as a measure of living cells.

The nature of series [2]: Cytotoxicity assay, galactose-adapted HepG2 cells, Cell Titer Glo, 5 days. The format is cell-based. The following applies: human, galactose-adapted HepG2, five days incubation, intracellular ATP, read-out: CC50 GALHEPG2 CTG 5D.
Source text: as §2, §3, §4, §5, §6, §7

The nature of series [3]: Cytotoxicity assay, MRC-5 cells, Cell Titer Glo, 5 days. The format is cell-based, human. The following applies: human, MRC-5 cells; MRC-5, five days incubation, intracellular ATP; read-out: CC50 MRC5 CTG 5D.
Source text: as §2, §3, §4, §5, §6, §7

A short description of series [4]: MT-4 cytotoxicity assay, Cell Titer Glo, 5 days. The format is cell-based, human. The following applies: human, MT-4 cells; MT-4, five days incubation, intracellular ATP; read-out: CC50 (MT4).
Source text: as §2, §3, §4
(§8) For the MT-4 cytotoxicity assay, 0.4 μL of serially diluted compounds were added to 40 μl of cell maintenance media in 384-well black, solid bottom plate using a Biomek FX workstation (Beckman Coulter). Two thousand cells in 35 μL were added to each well using a Biotek uFlow Workstation (Biotek). Each assay plate contained 10 μM Puromycin (final concentration) and 0.5% DMSO in RPMI-1640 as positive and negative controls, respectively. Assay plates were incubated for five days at 37° C. in an incubator set at 5% CO2 and 90% humidity. After five days, 22 μL of Cell Titer Glo reagent (Promega) was added to the assay plates with a Biotek uFlow Workstation. Plates were subsequently placed on a Perkin Elmer Envision Plate Reader for five minutes before the luminescence signal was read.
as §7

Series [5] in a line: Cytotoxicity assay, galactose-adapted PC-3 cells, Cell Titer Glo, 5 days. Type of series: cell-based. The following applies: human, galactose-adapted PC-3, five days incubation, intracellular ATP, read-out: CC50 GALPC3 CTG 5D.
Source text: as §2, §3
as §4, with “(Gibco). […]” for “(Gibco).”
At the end of the incubation period the cytotoxicity assay was performed as follows: Media from 384-well cell culture plates were aspirated with a Biotek EL405 plate-washer (Biotek) and cells were washed with 100 μL PBS once. […] Plates were incubated for 15 minutes at room temperature before luminescence was measured with a Perkin Elmer Envision Plate Reader (Perkin Elmer, Waltham, MA). […]

For the next series, the system named is TNFα. The experiment in a line: PBMC cytokine profiling assay, TNFα induction. Type of series: cell-based. The following applies: human PBMCs, 24 hours incubation. Put shortly:
as §1

Another series deals with Huh-7 cells. Briefly: Cytotoxicity assay, Huh-7 cells, Cell Titer Glo, 5 days. The format is cell-based, human. The following applies: Huh-7, five days incubation, intracellular ATP; read-out: CC50 HUH7 CTG 5D.
Source text: as §2, §3, §4, §5, §6, §7

A further series concerns MRC-5 cells. Briefly: Cytotoxicity assay, MRC-5 cells, Cell Titer Glo, 5 days. The following applies: MRC-5, five days incubation, intracellular ATP; read-out: CC50 MRC5 CTG 5D. The format is cell-based, human.
Source text: as §2, §3, §4, §5, §6, §7

The test system of the next series is MT-4 cells. Briefly: MT-4 cytotoxicity assay, Cell Titer Glo, 5 days. Type of series: cell-based, human. The following applies: MT-4, five days incubation, intracellular ATP; read-out: CC50 (MT4).
Source text: as §2, §3, §4, §8, §7

By AC50 is commonly meant the midpoint of the concentration-response curve, whichever way the signal moves. What is called CC50 is the concentration that lowers cell viability or growth by half. As to `CCCC[C@](C)(CO)Nc1nc(N)nc2cccnc12` [Example 59, (R)-2-((2-aminopyrido[3,2-d]pyrimidin-4-yl)amino)-2-methylhexan-1-ol], the AC50 in the series with IFNα (Homo sapiens, PBMC, 24 h) worked out at 15 µM; in the series with IL12p40 (Homo sapiens, PBMC, 24 h) it was 170 nM; in the series with TNFα (Homo sapiens, PBMC, 24 h), 180 nM. For the same molecule, the CC50 at 5 days in [1] was 35.4 µM; in series [2] it was 8.88 µM; in [3], 40.3 µM; in [4], 31.4 µM; in [5], 5.2 µM.

On to `CCCC[C@H](CO)Nc1nc(N)nc2ccsc12` [Y, reference compound], for which the AC50 in the series on IFNα (Homo sapiens, PBMC, 24 h) is above 50 µM; with IL12p40 (Homo sapiens, PBMC, 24 h) it was 13000 nM; with TNFα (Homo sapiens, PBMC, 24 h), 11200 nM. For the same molecule, the CC50 at 5 days in series [1] was found to be 2.31 µM; in series [2], 0.19 µM; in series [3], 0.95 µM; in series [4], 1.42 µM; in series [5], 0.18 µM.

Regarding `CCCC[C@](C)(CNC(C)=O)Nc1nc(N)nc2c(C)ccnc12` [Example 62], the AC50 in the series with IFNα (PBMC) was above 50 µM; in the series with IL12p40 (PBMC) it was 910 nM; in the series with TNFα (PBMC), 1000 nM. Further, the results for the CC50 in the series with Huh-7 cells, in the series with MRC-5 cells and in the series with MT-4 cells were 44.4 µM, 44.4 µM and 19.2 µM, respectively. Also, the CC50 at 5 days in series [2] was found to be 44.4 µM.

For the molecule `CCCC[C@H](CO)Nc1nc(N)nc2cccnc12` [Example 15, (R)-2-((2-aminopyrido[3,2-d]pyrimidin-4-yl)amino)hexan-1-ol], the AC50 with IFNα (Homo sapiens, PBMC, 24 h) was above 200 µM; in the series on IL12p40 (Homo sapiens, PBMC, 24 h), 1200 nM; in the series on TNFα (Homo sapiens, PBMC, 24 h), 1600 nM. For the same molecule, in series [1], the CC50 at 5 days turned out to be 10.7 µM.

Regarding `CCCC[C@](C)(CNC(C)=O)Nc1nc(N)nc2cc(F)cnc12` [Example 101, (R)—N-(2-((2-amino-7-fluoropyrido[3,2-d]pyrimidin-4-yl)amino)-2-methylhexyl)acetamide], the AC50 in the series on IFNα (Homo sapiens, PBMC, 24 h) is above 50 µM; in the series on IL12p40 (Homo sapiens, PBMC, 24 h), 110 nM; in the series on TNFα (Homo sapiens, PBMC, 24 h), 100 nM. The CC50 with Huh-7 cells and in the series on MRC-5 cells was 44.4 µM in each case. The CC50 at 5 days in series [2] is 44.4 µM; in series [4], 50 µM.

As for `CCCC[C@](C)(CNC(C)=O)Nc1nc(N)nc2cccnc12` [Example 61], the AC50 was 42.1 µM in the series on IFNα (Homo sapiens, PBMC, 24 h); 20 nM with IL12p40 (Homo sapiens, PBMC, 24 h); 20 nM in the series on TNFα (Homo sapiens, PBMC, 24 h). Moreover, the CC50 with Huh-7 cells and in the series with MRC-5 cells was 44.4 µM each time. Besides, in series [2], the cytotoxic concentration (CC50) at 5 days amounted to 44.4 µM.

For the molecule `CCCC[C@](CO)(Nc1nc(N)nc2cccnc12)C(F)(F)F` [Example 93, (R)-2-((2-aminopyrido[3,2-d]pyrimidin-4-yl)amino)-2-(trifluoromethyl)hexan-1-ol], the AC50 with IFNα (Homo sapiens, PBMC, 24 h) was above 50 µM; in the series with IL12p40 (Homo sapiens, PBMC, 24 h) it was 400 nM; in the series on TNFα (Homo sapiens, PBMC, 24 h), 440 nM. Moreover, the CC50 in the series with Huh-7 cells was 44.4 µM. For the same molecule, the CC50 at 5 days in [3] came out at 38.8 µM.

In the case of `CCCC[C@@](C)(Nc1nc(N)nc2cccnc12)C(C)O` (single isomer, unassigned) [Example 97], the half-maximal activity concentration (AC50) in the series with IFNα worked out at 26 µM; in the series with IL12p40, 130 nM; with TNFα it was 140 nM. For the same molecule, the CC50 in the series on Huh-7 cells and in the series on MRC-5 cells was 44.4 µM throughout. In addition, the CC50 at 5 days in series [4] is 50 µM.

Take `CCC[C@@H](CO)Nc1nc(N)nc2cc(F)c(F)cc12` [X, reference compound]: the AC50 in the series on IFNα (Homo sapiens, PBMC, 24 h) turned out to be 7.1 µM; in the series with IL12p40 (Homo sapiens, PBMC, 24 h), 970 nM; in the series with TNFα (Homo sapiens, PBMC, 24 h), 1200 nM. For the same molecule, the CC50 at 5 days was determined as 16.9 µM in [1]; 7.85 µM in [2]; 20.9 µM in series [3]; 53.8 µM in series [4]; 6.79 µM in [5].

With `CCCC[C@](C)(CNC(C)=O)Nc1nc(N)nc2cc(Cl)cnc12` [Example 65, (R)—N-(2-((2-amino-7-chloropyrido[3,2-d]pyrimidin-4-yl)amino)-2-methylhexyl)acetamide], the AC50 is above 50 µM in the series on IFNα (Homo sapiens, PBMC, 24 h); 90 nM in the series with IL12p40 (Homo sapiens, PBMC, 24 h); 110 nM in the series on TNFα (Homo sapiens, PBMC, 24 h). Also, the CC50 with Huh-7 cells and with MRC-5 cells was 44.4 µM in each case. Besides, the results for the CC50 at 5 days in series [2] and in series [4] were 44.4 µM and 50 µM, respectively.

For `CCCC[C@@](C)(CO)Nc1nc(N)nc2cc(F)cnc12` [Example 64, (S)-2-((2-amino-7-fluoropyrido[3,2-d]pyrimidin-4-yl)amino)-2-methylhexan-1-ol], the AC50 in the series on IFNα (Homo sapiens, PBMC, 24 h) was 37.9 µM; in the series with IL12p40 (Homo sapiens, PBMC, 24 h), 3200 nM; in the series on TNFα (Homo sapiens, PBMC, 24 h) it was 3100 nM. The CC50 at 5 days in series [4] turned out to be 0.79 µM; in series [5], 1.55 µM.
